From patent US9617289B2, “RSV antiviral compounds” (JANSSEN R&D IRELAND, priority 2012, dated 2017) come the findings set out here.

One data set deals with rgRSV224 virus. The data set can be described thus: Antiviral activity: inhibition of rgRSV224 (GFP-expressing RSV) replication in HeLa cells. The data set is classed as cell-based, respiratory syncytial virus. The note with it: human respiratory syncytial virus, HeLa, 72 h. In outline: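 HeLa cells infected with GFP-expressing rgRSV224 at MOI 0.02 alongside 4-fold compound dilutions in duplicate (0.5% DMSO). Incubated 3 days at 37 °C; EC50 taken as 50% inhibition of GFP expression by laser microscopy. CC50 measured in parallel uninfected cells by ATP content after 3 days; SI = CC50/EC50.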

[1] abbreviates: read-out: RSV-wt_pEC50, rgRSV224 (MOI=0.02) in HeLa cells, GFP expression three days post-virus exposure.

Read-outs that look alike come from different tables or passages of the source. A value given as a limit tells only on which side of the number the result lay.

In general, melting point refers to the temperature of the solid-liquid transition. The compound `CS(=O)(=O)CCCn1c(CN2C(=O)C3(CCN(S(=O)(=O)C4CC4)CC3)c3ccncc32)nc2cc(Cl)ccc21` [Compound 85, 1′-((5-chloro-1-(3-(methylsulfonyl)propyl)-1H-benzo[d]-imidazol-2-yl)methyl)-1-(cyclopropylsulfonyl)spiro-[piperidine-4,3′-pyrrolo[2,3-c]pyridin]-2′(1′H)-one] showed a melting point of 150.42 °C. Further, the EC50 with rgRSV224 virus (read-out: pEC50, rgRSV224 (MOI=0.02) in HeLa cells, GFP expression three days post-virus exposure (converted)) was under 158 pM.

The compound `CS(=O)(=O)CCCn1c(CN2C(=O)C3(CCN(C(=O)C4CC4)CC3)c3ccncc32)nc2cc(Cl)ccc21` [Compound 90, 1′-({5-Chloro-1-[3-(methylsulfonyl)propyl]-1H-benzimidazol-2-yl}methyl)-1-(cyclopropylcarbonyl)spiro[piperidine-4,3′-pyrrolo[2,3-c]pyridin]-2′(1′H)-one] registered a melting point of 208.64 °C. In the data set with rgRSV224 virus (setting [1]), the EC50 was 46.8 pM.

`CS(=O)(=O)N1CC2(C1)C(=O)N(Cc1nc3cc(Cl)ccc3n1CCCC#N)c1ccccc12` [Compound 94, 4-(5-Chloro-2-{[1-(methylsulfonyl)-2′-oxospiro[azetidine-3,3′-indol]-1′(2′H)-yl]methyl}-1H-benzimidazol-1-yl)-butanenitrile] yielded a melting point of 214.11 °C. Also, the EC50 with rgRSV224 virus (setting [1]) is 129 pM.

`CS(=O)(=O)CCCn1c(CN2C(=O)C3(CCN(S(=O)(=O)c4cccs4)CC3)c3ccccc32)nc2cc(Cl)ccc21` [Compound 102] gave a melting point of 233.06 °C. Moreover, the EC50 with rgRSV224 virus (setting [1]) is 1450 pM.

The compound `CNC(=O)OC1CC2(C1)C(=O)N(Cc1nc3cc(Cl)ccc3n1CCCS(C)(=O)=O)c1ccccc12` [Compound 104, (1R,3R)-1′-((5-chloro-1-(3-(methylsulfonyl)propyl)-1H-benzo[d]imidazol-2-yl)methyl)-2′-oxospiro[cyclobutane-1,3′-indoline]-3-yl methylcarbamate] returned a melting point of 204.17 °C. For the same compound, in the data set with rgRSV224 virus (setting [1]), the EC50 was 22.9 pM.

The compound `CS(=O)(=O)N1CCC2(CC1)C(=O)N(Cc1cc3cc(Cl)ccc3n1CCCC#N)c1cnccc12` [Compound 105, 4-(5-Chloro-2-{[1-(methylsulfonyl)-2′-oxospiro[piperidine-4,3′-pyrrolo[2,3-c]pyridin]-1′(2′H)-yl]methyl}-1H-indol-1-yl)butanenitrile] gave a melting point of 145.3 °C. Also, the EC50 in the data set with rgRSV224 virus (setting [1]) is 83.2 pM.

`CC(=O)NS(=O)(=O)N1CCC2(CC1)C(=O)N(Cc1cc3cc(Cl)ccc3n1CCCCF)c1cnccc12` [Compound 114, N-[(1′-{[5-Chloro-1-(4-fluorobutyl)-1H-indol-2-yl]methyl}-2′-oxo-1′,2′-dihydro-1H-spiro[piperidine-4,3′-pyrrolo[2,3-c]-pyridin]-1-yl)sulfonyl]acetamide] gave a melting point of 236.92 °C. In addition, the EC50 with rgRSV224 virus (setting [1]) is 427 pM.

As for `CC(=O)NS(=O)(=O)N1CC2(C1)C(=O)N(Cc1cc3cc(Cl)ccc3n1CCCC#N)c1ccccc12` [Compound 117, N-[(1′-{[5-Chloro-1-(3-cyanopropyl)-1H-indol-2-yl]methyl}-2′-oxo-1′,2′-dihydro-1H-spiro[azetidine-3,3′-indol]-1-yl)sulfonyl]acetamide], the melting point was found to be 182.85 °C. Also, the EC50 in the data set with rgRSV224 virus (setting [1]) was 10000 pM.

As to `CC(C)NC(=O)N[C@H]1C[C@]2(C1)C(=O)N(Cc1nc3cc(Cl)ccc3n1CCCC#N)c1ccccc12` [Compound 143, 1-((1s,3s)-1′-((5-chloro-1-(3-cyanopropyl)-1H-benzo[d]imidazol-2-yl)methyl)-2′-oxospiro[cyclobutane-1,3′-indolin]-3-yl)-3-isopropylurea], the melting point came to 242.49 °C. Moreover, the EC50 with rgRSV224 virus (setting [1]) is 3310 pM.

On to `CC(C)NC(=O)N[C@H]1C[C@@]2(C1)C(=O)N(Cc1nc3cc(Cl)ccc3n1CCCC#N)c1ccccc12` [Compound 144, 1-((1r,3r)-1′-((5-chloro-1-(3-cyanopropyl)-1H-benzo[d]imidazol-2-yl)methyl)-2′-oxospiro[cyclobutane-1,3′-indolin]-3-yl)-3-isopropylurea], for which the melting point was 219.9 °C. Also, in the data set on rgRSV224 virus (setting [1]), the EC50 is 229 pM.

As for `CC(=O)N[C@H]1C[C@]2(C1)C(=O)N(Cc1nc3cc(Cl)ccc3n1CCCC#N)c1ccccc12` [Compound 145, N-((1s,3s)-1′-((5-chloro-1-(3-cyanopropyl)-1H-benzo[d]imidazol-2-yl)methyl)-2′-oxospiro[cyclobutane-1,3′-indolin]-3-yl)acetamide], the melting point was 250.91 °C. The EC50 with rgRSV224 virus (setting [1]) was 302 pM.

`CC(=O)N[C@H]1C[C@@]2(C1)C(=O)N(Cc1nc3cc(Cl)ccc3n1CCCC#N)c1ccccc12` [Compound 146, N-((1r,3r)-1′-((5-chloro-1-(3-cyanopropyl)-1H-benzo[d]imidazol-2-yl)methyl)-2′-oxospiro[cyclobutane-1,3′-indolin]-3-yl)acetamide] registered a melting point of 194.77 °C. In addition, the EC50 with rgRSV224 virus (setting [1]) is 501 pM.

`N#CCCCn1c(CN2C(=O)C3(CCN(C(=O)OCCO)CC3)c3ccncc32)cc2cc(Cl)ccc21` [Compound 147, 2-Hydroxyethyl 1′-{[5-chloro-1-(3-cyanopropyl)-1H-indol-2-yl]methyl}-2′-oxo-1′,2′-dihydro-1H-spiro[piperidine-4,3′-pyrrolo[2,3-c]pyridine]-1-carboxylate] returned a melting point of 144.55 °C. Further, the EC50 in the data set with rgRSV224 virus (setting [1]) was 55 pM.

As for `CC(C)(O)C(=O)N1CCC2(CC1)C(=O)N(Cc1nc3cc(Cl)ccc3n1CCCCO)c1cnccc12` [Compound 164, 1′-{[5-Chloro-1-(4-hydroxybutyl)-1H-benzimidazol-2-yl]methyl}-1-(2-hydroxy-2-methylpropanoyl)spiro[piperidine-4,3′-pyrrolo[2,3-c]pyridin]-2′(1′H)-one], the melting point is 191.87 °C. For the same compound, the EC50 in the data set with rgRSV224 virus (setting [1]) was 126 pM.

In the case of `CC(C)(O)C(=O)N1CC2(C1)C(=O)N(Cc1cc3cc(Cl)ccc3n1CCCCO)c1ccccc12` [Compound 166, 1′-{[5-Chloro-1-(4-hydroxybutyl)-1H-indol-2-yl]methyl}-1-(2-hydroxy-2-methylpropanoyl)spiro[azetidine-3,3′-indol]-2′(1′H)-one], the melting point was 157.11 °C. In addition, the EC50 in the data set with rgRSV224 virus (setting [1]) is 537 pM.

In turn, `CC(C)(O)C(=O)N1CCC2(CC1)C(=O)N(Cc1nc3cc(Cl)ccc3n1CCCCF)c1cnccc12` [Compound 169, 1′-{[5-Chloro-1-(4-fluorobutyl)-1H-benzimidazol-2-yl]methyl}-1-(2-hydroxy-2-methylpropanoyl)spiro[piperidine-4,3′-pyrrolo[2,3-c]pyridin]-2′(1′H)-one] yielded a melting point of 222.72 °C. For the same compound, in the data set with rgRSV224 virus (setting [1]), the EC50 was 27.5 pM.

`CC(=O)NS(=O)(=O)N1CCC2(CC1)C(=O)N(Cc1cc3cc(Cl)ccc3n1CCCC#N)c1cnccc12` [Compound 172, N-[(1′-{[5-Chloro-1-(3-cyanopropyl)-1H-indol-2-yl]methyl}-2′-oxo-1′,2′-dihydro-1H-spiro[piperidine-4,3′-pyrrolo[2,3-c]pyridin]-1-yl)sulfonyl]acetamide]: the melting point stood at 230.52 °C. In the data set with rgRSV224 virus (setting [1]), the EC50 was 66.1 pM.

As for `N#CCCCn1c(CN2c3ccccc3[C@]3(C[C@@H](O)C3)C2=O)nc2cc(Cl)ccc21` [Compound 176, 4-(5-chloro-2-(((1r,3r)-3-hydroxy-2′-oxospiro[cyclobutane-1,3′-indolin]-1′-yl)methyl)-1H-benzo[d]imidazol-1-yl)butanenitrile], the melting point came out at 217.25 °C. Further, the EC50 in the data set with rgRSV224 virus (setting [1]) was 363 pM.

For the compound `COC(=O)N1CCC2(CC1)C(=O)N(Cc1nc3cc(Cl)ccc3n1CCCCF)c1cnccc12` [Compound 178, Methyl 1′-{[5-chloro-1-(4-fluorobutyl)-1H-benzimidazol-2-yl]methyl}-2′-oxo-1′,2′-dihydro-1H-spiro[piperidine-4,3′-pyrrolo[2,3-c]pyridine]-1-carboxylate], the melting point was 182.68 °C. Also, in the data set on rgRSV224 virus (setting [1]), the EC50 is 28.8 pM.

Compound `CC(C)OC(=O)N1CCC2(CC1)C(=O)N(Cc1nc3cc(Cl)ccc3n1CCCCF)c1cnccc12` [Compound 179, 1-Methylethyl 1′-{[5-chloro-1-(4-fluorobutyl)-1H-benzimidazol-2-yl]methyl}-2′-oxo-1′,2′-dihydro-1H-spiro[piperidine-4,3′-pyrrool[2,3-c]pyridine]-1-carboxylate] displayed a melting point of 198.92 °C. Moreover, the EC50 in the data set with rgRSV224 virus (setting [1]) is 43.7 pM.

`N#CCCCn1c(CN2C(=O)C3(CN(S(=O)(=O)C4CC4)C3)c3ccccc32)nc2cc(Cl)ccc21` [Compound 180, 4-(5-Chloro-2-{[1-(cyclopropylsulfonyl)-2′-oxospiro[azetidine-3,3′-indol]-1′(2′H)-yl]methyl}-1H-benzimidazol-1-yl)butanenitrile] registered a melting point of 190.42 °C. Also, the EC50 in the data set on rgRSV224 virus (setting [1]) was 117 pM.

In the case of `N#CCCCn1c(CN2C(=O)C3(CCN(C(=O)C(O)(C(F)(F)F)C(F)(F)F)CC3)c3ccncc32)nc2cc(Cl)ccc21` [Compound 181, 4-[5-Chloro-2-({2′-oxo-1-[3,3,3-trifluoro-2-hydroxy-2-(trifluoromethyl)propanoyl]spiro[piperidine-4,3′-pyrrolo[2,3-c]pyridin]-1′(2′H)-yl}methyl)-1H-benzimidazol-1-yl]butanenitrile], the melting point was 240.41 °C. For the same compound, in the data set with rgRSV224 virus (setting [1]), the EC50 is 251 pM.

Compound `CC(C)(O)C(=O)N1CC2(C1)C(=O)N(Cc1nc3cc(Cl)ccc3n1CCCCF)c1ccccc12` [Compound 183, 1′-{[5-Chloro-1-(4-fluorobutyl)-1H-benzimidazol-2-yl]methyl}-1-(2-hydroxy-2-methylpropanoyl)spiro[azetidine-3,3′-indol]-2′(1′H)-one] registered a melting point of 219.71 °C. Moreover, in the data set with rgRSV224 virus (setting [1]), the EC50 was 75.9 pM.
